# Assay results: ChEMBL document CHEMBL4007467, “Effects of 6-paradol, an unsaturated ketone from gingers, on cytochrome P450-mediated drug metabolism” (Bioorg Med Chem Lett, 2017)
# Assays:
# Type in all cases: ADME
# Design in all cases: scale not given: the % may be the effect or the level left
# CYP1A2 [1] = molecular target: T1, CYP1A2 (Homo sapiens, UniProt P05177); test: Inhibition of CYP1A2 in human liver microsomes assessed as enzyme-mediated metabolite formation at 0.1 uM using phenacetin as substrate incubated for 5 mins followed by NADPH addition measured after 30 mins by LC-MS/MS analysis relative to control; conditions: probe phenacetin, read-out: Activity
# T1 sequence (P05177 whole entry): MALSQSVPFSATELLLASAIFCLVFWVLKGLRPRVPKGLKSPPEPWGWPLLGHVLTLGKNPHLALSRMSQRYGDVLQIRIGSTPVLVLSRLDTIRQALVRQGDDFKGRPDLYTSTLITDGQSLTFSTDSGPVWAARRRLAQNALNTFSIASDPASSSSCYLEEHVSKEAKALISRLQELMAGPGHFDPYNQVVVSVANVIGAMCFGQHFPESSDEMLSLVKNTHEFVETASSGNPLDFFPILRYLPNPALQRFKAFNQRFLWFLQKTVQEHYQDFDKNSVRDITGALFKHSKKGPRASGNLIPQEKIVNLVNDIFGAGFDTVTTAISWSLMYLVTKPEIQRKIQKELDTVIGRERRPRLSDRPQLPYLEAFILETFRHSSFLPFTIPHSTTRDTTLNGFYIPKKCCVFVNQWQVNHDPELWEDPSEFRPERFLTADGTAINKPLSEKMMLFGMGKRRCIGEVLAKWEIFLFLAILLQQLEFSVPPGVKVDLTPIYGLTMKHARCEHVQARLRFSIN
# CYP2A6 = molecular target: T2, CYP2A6 (Homo sapiens, UniProt P11509); test: Inhibition of CYP2A6 in human liver microsomes assessed as enzyme-mediated metabolite formation at 30 uM using coumarin as substrate incubated for 5 mins followed by NADPH addition measured after 30 mins by LC-MS/MS analysis relative to control; conditions: probe coumarin, read-out: Activity
# T2 sequence (P11509 whole entry): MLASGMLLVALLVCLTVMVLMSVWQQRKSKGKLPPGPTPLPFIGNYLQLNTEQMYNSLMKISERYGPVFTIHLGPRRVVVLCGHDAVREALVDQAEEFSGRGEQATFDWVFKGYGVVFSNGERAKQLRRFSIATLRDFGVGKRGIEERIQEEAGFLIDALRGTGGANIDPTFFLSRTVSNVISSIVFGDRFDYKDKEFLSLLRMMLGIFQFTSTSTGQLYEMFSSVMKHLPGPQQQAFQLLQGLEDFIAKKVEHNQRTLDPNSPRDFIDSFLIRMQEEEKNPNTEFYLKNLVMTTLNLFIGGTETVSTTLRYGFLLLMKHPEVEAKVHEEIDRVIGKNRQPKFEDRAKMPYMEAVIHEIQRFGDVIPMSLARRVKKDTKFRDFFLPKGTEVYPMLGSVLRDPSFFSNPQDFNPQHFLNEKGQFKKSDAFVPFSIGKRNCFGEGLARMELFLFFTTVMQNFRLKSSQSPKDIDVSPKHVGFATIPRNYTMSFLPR
# CYP2C8 = molecular target: T3, CYP2C8 (Homo sapiens, UniProt P10632); test: Inhibition of CYP2C8 in human liver microsomes assessed as enzyme-mediated metabolite formation at 0.3 uM using paclitaxel as substrate incubated for 5 mins followed by NADPH addition measured after 30 mins by LC-MS/MS analysis relative to control; conditions: probe paclitaxel, read-out: Activity
# T3 sequence (P10632 whole entry): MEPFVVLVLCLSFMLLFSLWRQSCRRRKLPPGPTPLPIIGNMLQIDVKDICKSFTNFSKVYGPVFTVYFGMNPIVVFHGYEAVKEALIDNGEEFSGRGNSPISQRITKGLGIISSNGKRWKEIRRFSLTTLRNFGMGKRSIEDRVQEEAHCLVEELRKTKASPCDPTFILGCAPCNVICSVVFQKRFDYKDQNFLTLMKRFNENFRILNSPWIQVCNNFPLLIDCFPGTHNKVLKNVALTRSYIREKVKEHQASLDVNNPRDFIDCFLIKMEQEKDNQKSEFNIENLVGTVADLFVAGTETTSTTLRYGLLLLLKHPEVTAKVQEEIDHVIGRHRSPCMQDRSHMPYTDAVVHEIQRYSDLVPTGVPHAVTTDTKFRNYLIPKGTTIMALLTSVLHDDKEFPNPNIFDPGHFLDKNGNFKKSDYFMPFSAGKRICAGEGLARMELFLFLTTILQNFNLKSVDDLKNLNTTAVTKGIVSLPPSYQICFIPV
# CYP2C19 = CYP2C19 (Homo sapiens, UniProt P33261); test: Inhibition of CYP2C19 in human liver microsomes assessed as enzyme-mediated metabolite formation at 0.1 uM using (S)-mephenytoin as substrate incubated for 5 mins followed by NADPH addition measured after 30 mins by LC-MS/MS analysis relative to control; conditions: probe (S)-mephenytoin, read-out: Activity
# CYP2C19, sequence (P33261 whole entry): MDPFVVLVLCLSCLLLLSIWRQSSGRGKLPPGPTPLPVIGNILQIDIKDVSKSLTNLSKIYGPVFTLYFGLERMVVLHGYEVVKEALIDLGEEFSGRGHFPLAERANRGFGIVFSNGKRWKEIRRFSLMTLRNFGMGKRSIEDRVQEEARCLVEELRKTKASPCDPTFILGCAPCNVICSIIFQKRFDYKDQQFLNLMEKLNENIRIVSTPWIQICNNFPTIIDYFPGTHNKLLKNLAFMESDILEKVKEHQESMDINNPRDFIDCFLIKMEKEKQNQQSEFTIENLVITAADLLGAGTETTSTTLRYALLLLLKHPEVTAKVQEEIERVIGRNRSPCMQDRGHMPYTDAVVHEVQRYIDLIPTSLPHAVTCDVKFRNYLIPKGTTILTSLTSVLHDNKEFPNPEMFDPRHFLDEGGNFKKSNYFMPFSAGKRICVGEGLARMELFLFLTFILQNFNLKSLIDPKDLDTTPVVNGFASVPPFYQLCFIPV
# CYP2D6 = CYP2D6 (Homo sapiens, UniProt P10635); test: Inhibition of CYP2D6 in human liver microsomes assessed as enzyme-mediated metabolite formation at 0.3 uM using dextromethorphan as substrate incubated for 5 mins followed by NADPH addition measured after 30 mins by LC-MS/MS analysis relative to control; conditions: probe dextromethorphan, read-out: Activity
# CYP2D6, sequence (P10635 whole entry): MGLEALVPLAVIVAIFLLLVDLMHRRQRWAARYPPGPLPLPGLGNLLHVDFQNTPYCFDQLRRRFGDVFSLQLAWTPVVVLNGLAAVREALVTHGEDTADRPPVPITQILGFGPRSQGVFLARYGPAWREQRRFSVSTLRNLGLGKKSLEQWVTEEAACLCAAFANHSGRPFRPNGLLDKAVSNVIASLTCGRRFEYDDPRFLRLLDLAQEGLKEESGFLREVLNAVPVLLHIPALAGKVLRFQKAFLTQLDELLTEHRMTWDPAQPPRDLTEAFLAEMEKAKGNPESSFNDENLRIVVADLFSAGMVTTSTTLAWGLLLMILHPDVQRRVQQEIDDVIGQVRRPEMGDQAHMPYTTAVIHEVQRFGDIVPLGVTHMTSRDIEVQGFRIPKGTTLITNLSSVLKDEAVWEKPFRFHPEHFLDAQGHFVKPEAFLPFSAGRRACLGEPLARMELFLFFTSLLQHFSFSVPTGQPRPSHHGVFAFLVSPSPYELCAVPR
# CYP3A4 = CYP3A4 (Homo sapiens, UniProt P08684); test: Inhibition of CYP3A4 in human liver microsomes assessed as enzyme-mediated metabolite formation at 3 uM using testosterone as substrate incubated for 5 mins followed by NADPH addition measured after 30 mins by LC-MS/MS analysis relative to control; conditions: probe testosterone, read-out: Activity
# CYP3A4, sequence (P08684 whole entry): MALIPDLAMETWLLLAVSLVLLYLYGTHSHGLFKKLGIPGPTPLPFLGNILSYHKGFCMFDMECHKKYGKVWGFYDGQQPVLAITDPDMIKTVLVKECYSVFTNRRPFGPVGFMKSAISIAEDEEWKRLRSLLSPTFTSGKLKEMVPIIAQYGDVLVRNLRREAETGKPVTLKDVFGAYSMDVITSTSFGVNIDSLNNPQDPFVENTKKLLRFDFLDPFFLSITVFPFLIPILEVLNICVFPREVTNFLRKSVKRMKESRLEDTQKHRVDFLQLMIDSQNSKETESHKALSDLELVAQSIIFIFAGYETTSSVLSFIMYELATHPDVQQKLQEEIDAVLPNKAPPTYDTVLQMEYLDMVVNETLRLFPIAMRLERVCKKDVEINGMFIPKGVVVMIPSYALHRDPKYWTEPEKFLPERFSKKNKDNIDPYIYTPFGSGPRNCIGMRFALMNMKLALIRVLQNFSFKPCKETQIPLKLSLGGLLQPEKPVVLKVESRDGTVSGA
# CYP1A2 [2] = molecular target: T1, CYP1A2; test: Inhibition of CYP1A2 in human liver microsomes assessed as enzyme-mediated metabolite formation at 1 uM using phenacetin as substrate preincubated for 20 mins followed by substrate addition measured after 30 mins in presence of NADPH by LC-MS/MS analysis relative to control; conditions: probe phenacetin, read-out: Activity
# CYP2B6 = molecular target: T4, CYP2B6 (Homo sapiens, UniProt P20813); test: Inhibition of CYP2B6 in human liver microsomes assessed as enzyme-mediated metabolite formation at 1 uM using bupropion as substrate preincubated for 20 mins followed by substrate addition measured after 30 mins in presence of NADPH by LC-MS/MS analysis relative to control; conditions: probe bupropion, read-out: Activity
# T4 sequence (P20813 whole entry): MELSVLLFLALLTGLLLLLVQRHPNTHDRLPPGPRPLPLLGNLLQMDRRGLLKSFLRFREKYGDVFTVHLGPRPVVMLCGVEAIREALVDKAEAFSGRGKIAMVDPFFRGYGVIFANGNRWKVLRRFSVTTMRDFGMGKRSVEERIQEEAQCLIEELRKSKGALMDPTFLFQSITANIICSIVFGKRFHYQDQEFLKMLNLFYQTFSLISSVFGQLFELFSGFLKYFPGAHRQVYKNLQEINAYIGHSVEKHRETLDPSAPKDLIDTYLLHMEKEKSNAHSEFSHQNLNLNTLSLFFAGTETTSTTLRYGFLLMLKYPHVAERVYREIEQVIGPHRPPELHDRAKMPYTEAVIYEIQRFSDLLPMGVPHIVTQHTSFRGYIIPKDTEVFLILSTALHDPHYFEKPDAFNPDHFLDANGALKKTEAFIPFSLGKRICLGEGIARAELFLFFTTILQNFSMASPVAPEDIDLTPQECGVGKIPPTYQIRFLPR
smiles,measurement,setting,value
CCCCCCCC(=O)CCc1ccc(O)c(OC)c1,"activity at 0.5 h, 0.1 µM",CYP1A2 [1],100%
same,"activity at 0.5 h, 30 µM",CYP2A6,77.4%
same,"activity at 0.5 h, 0.3 µM",CYP2C8,82%
same,"activity at 0.5 h, 0.1 µM",CYP2C19,98.4%
same,"activity at 0.5 h, 0.3 µM",CYP2D6,76%
same,"activity at 0.5 h, 3 µM",CYP3A4,63.3%
same,"activity at 0.5 h, 1 µM",CYP1A2 [2],82.1%
same,"activity at 0.5 h, 1 µM",CYP2B6,79%
